{"source": "PubChem BioAssay AID1259409", "about": "(Chemical Carcinogenesis Research Information System (CCRIS), 2018)", "origin": "cited, not measured here", "test_system": "rodent chemically induced tumor inhibition, incidence and multiplicity", "test": "CCRIS tumor inhibitor studies", "conditions": "for tumour outcome (control, treated, inhibition, significance): Dose [Inhibitor]: 0, Promoter: NONE USED"}
{"smiles": "Cc1ccc(O)c(O)c1", "values": [{"measurement": "tumour outcome (control, treated, inhibition, significance)", "setting": "Carcinogen: N-NITROSOBIS(2-HYDROXYPROPYL)AMINE, 53609-64-6, 1.5% IN DIET FOR 30 WK BEGINNING POST CARCINOGEN TREATMENT (STUDY DURATION: 35 WK), Route [Inhibitor]: ORAL, Species: HAMSTER, Strain/Sex: SYRIAN/MALE, Target Tissue: Type of Lesion: PANCREAS: ADENOCARCINOMA, Dose [Carcinogen]: 500 MG/KG 1/WK FOR 5 WK", "value": "8/17 (47%), 9/19 (47%), 0%, not significant"}]}
{"smiles": "O=[Se](=O)(O)O", "values": [{"measurement": "tumour outcome (control, treated, inhibition, significance)", "setting": "Carcinogen: 7,12-DIMETHYLBENZ[A]ANTHRACENE, 57-97-6, 0.2 PPM IN DIET BEGINNING 3 D PRIOR TO CARCINOGEN DOSE AND CONTINUING FOR 8 MO (STUDY DURATION: 8 MO), Route [Inhibitor]: ORAL, Species: MOUSE, Strain/Sex: BALB/FEMALE, Target Tissue: Type of Lesion: MAMMARY GLAND: ADENOCARCINOMA, Dose [Carcinogen]: 1 MG/WK FOR 6 WK", "value": "12/31 (39%), 7/24 (29%), 26%, not calculated"}, {"measurement": "tumour outcome (control, treated, inhibition, significance)", "setting": "Carcinogen: 7,12-DIMETHYLBENZ[A]ANTHRACENE, 57-97-6, 2 PPM IN DIET BEGINNING 3 D PRIOR TO CARCINOGEN DOSE AND CONTINUING FOR 8 MO (STUDY DURATION: 8 MO), Route [Inhibitor]: ORAL, Species: MOUSE, Strain/Sex: BALB/FEMALE, Target Tissue: Type of Lesion: MAMMARY GLAND: ADENOCARCINOMA, Dose [Carcinogen]: 1 MG/WK FOR 6 WK", "value": "12/31 (39%), 2/23 (9%), 77%, p<0.08"}]}
{"smiles": "C=C1C(=O)O[C@@H]2/C=C(\\C)CCC=C(C)CC[C@@H]12", "values": [{"measurement": "tumour outcome (control, treated, inhibition, significance)", "setting": "Carcinogen: AZOXYMETHANE, 25843-45-2, 0.02% IN DIET FOR 4 WK BEGINNING AT TIME OF CARCINOGEN TREATMENT (STUDY DURATION: 33 WK), Route [Inhibitor]: ORAL, Species: RAT, Strain/Sex: F344/MALE, Target Tissue: Type of Lesion: INTESTINE: ADENOMA OR ADENOCARCINOMA, Dose [Carcinogen]: 15 MG/KG BW 1/WK FOR 3 WK", "value": "15/30 (50%), 5/29 (17%), 66%, p<0.05"}]}
{"smiles": "CC(C)(Sc1cc(C(C)(C)C)c(O)c(C(C)(C)C)c1)Sc1cc(C(C)(C)C)c(O)c(C(C)(C)C)c1", "values": [{"measurement": "tumour outcome (control, treated, inhibition, significance)", "setting": "Carcinogen: BENZO[A]PYRENE, 50-32-8, 0.06% IN DIET FOR DURATION OF STUDY BEGINNING 2 WK PRIOR TO CARCINOGEN DOSE (STUDY DURATION: 25 WK), Route [Inhibitor]: ORAL, Species: MOUSE, Strain/Sex: STRAIN-A/FEMALE, Target Tissue: Type of Lesion: FORESTOMACH: TUMOR, Dose [Carcinogen]: 1 MG IN 0.2 ML OLIVE OIL 2/WK FOR 4 WK", "value": "15/15 (100%), 13/13 (100%), 0%, not significant"}, {"measurement": "tumour outcome (control, treated, inhibition, significance)", "setting": "Carcinogen: BENZO[A]PYRENE, 50-32-8, 0.06% IN DIET FOR DURATION OF STUDY BEGINNING 2 WK PRIOR TO CARCINOGEN DOSE (STUDY DURATION: 25 WK), Route [Inhibitor]: ORAL, Species: MOUSE, Strain/Sex: STRAIN-A/FEMALE, Target Tissue: Type of Lesion: LUNG: ADENOMA, Dose [Carcinogen]: 1 MG IN 0.2 ML OLIVE OIL 2/WK FOR 4 WK", "value": "15/15 (100%), 13/13 (100%), 0%, not significant"}, {"measurement": "tumour outcome (control, treated, inhibition, significance)", "setting": "Carcinogen: BENZO[A]PYRENE, 50-32-8, 1% IN DIET FOR DURATION OF STUDY BEGINNING 2 WK PRIOR TO CARCINOGEN DOSE (STUDY DURATION: 25 WK), Route [Inhibitor]: ORAL, Species: MOUSE, Strain/Sex: STRAIN-A/FEMALE, Target Tissue: Type of Lesion: FORESTOMACH: TUMOR, Dose [Carcinogen]: 1 MG IN 0.2 ML OLIVE OIL 2/WK FOR 4 WK", "value": "15/15 (100%), 15/15 (100%), 0%, not significant"}, {"measurement": "tumour outcome (control, treated, inhibition, significance)", "setting": "Carcinogen: BENZO[A]PYRENE, 50-32-8, 1% IN DIET FOR DURATION OF STUDY BEGINNING 2 WK PRIOR TO CARCINOGEN DOSE (STUDY DURATION: 25 WK), Route [Inhibitor]: ORAL, Species: MOUSE, Strain/Sex: STRAIN-A/FEMALE, Target Tissue: Type of Lesion: LUNG: ADENOMA, Dose [Carcinogen]: 1 MG IN 0.2 ML OLIVE OIL 2/WK FOR 4 WK", "value": "15/15 (100%), 15/15 (100%), 0%, not significant"}, {"measurement": "outcome", "setting": "Carcinogen: N,N-diethylnitrosamine, 55-18-5, Dose [Inhibitor]: 1% in diet through study, dose and study duration 24 wk, Route [Inhibitor]: Oral, Species: Mouse, Strain/Sex: ddy/Male, Target Tissue: Type of Lesion: Kidney, Dose [Carcinogen]: 100 mg/kg bw, Promoter: Ferric nitrilotriacetate, 16448-54-7", "value": "14/20 (70%), 4/20 (20%)"}]}
{"smiles": "S=C=NCCCCCCCCc1ccccc1", "values": [{"measurement": "tumour outcome (control, treated, inhibition, significance)", "setting": "Carcinogen: 4-(METHYLNITROSAMINO)-1-(3-PYRIDYL)-1-BUTANONE, 64091-91-4, 0.04 UMOL ONCE 2 HR PRIOR TO CARCINOGEN DOSE (STUDY DURATION: 16 WK), Route [Inhibitor]: GAVAGE, Species: MOUSE, Strain/Sex: STRAIN-A/FEMALE, Target Tissue: Type of Lesion: LUNG: ADENOMA, Dose [Carcinogen]: 10 UMOL IN 0.1 ML SALINE ONCE", "value": "100%, 100%, 0%, not significant"}, {"measurement": "tumour outcome (control, treated, inhibition, significance)", "setting": "Carcinogen: 4-(METHYLNITROSAMINO)-1-(3-PYRIDYL)-1-BUTANONE, 64091-91-4, 0.1 UMOL ONCE 2 HR PRIOR TO CARCINOGEN DOSE (STUDY DURATION: 16 WK), Route [Inhibitor]: GAVAGE, Species: MOUSE, Strain/Sex: STRAIN-A/FEMALE, Target Tissue: Type of Lesion: LUNG: ADENOMA, Dose [Carcinogen]: 10 UMOL IN 0.1 ML SALINE ONCE", "value": "100%, 100%, 0%, not significant"}, {"measurement": "tumour outcome (control, treated, inhibition, significance)", "setting": "Carcinogen: 4-(METHYLNITROSAMINO)-1-(3-PYRIDYL)-1-BUTANONE, 64091-91-4, 0.2 UMOL ONCE 2 HR PRIOR TO CARCINOGEN DOSE (STUDY DURATION: 16 WK), Route [Inhibitor]: GAVAGE, Species: MOUSE, Strain/Sex: STRAIN-A/FEMALE, Target Tissue: Type of Lesion: LUNG: ADENOMA, Dose [Carcinogen]: 10 UMOL IN 0.1 ML SALINE ONCE", "value": "100%, 90%, 10%, p<0.05"}]}
{"smiles": "CCCCC(CC)COC(=O)c1ccccc1C(=O)OCC(CC)CCCC", "note": "(stereo not drawn)", "values": [{"measurement": "tumour outcome (control, treated, inhibition, significance)", "setting": "Carcinogen: N-NITROSOBIS(2-HYDROXYPROPYL)AMINE, 53609-64-6, 1.2% IN DIET FOR 30 WK BEGINNING POST CARCINOGEN TREATMENT (STUDY DURATION: 35 WK), Route [Inhibitor]: ORAL, Species: HAMSTER, Strain/Sex: SYRIAN/MALE, Target Tissue: Type of Lesion: PANCREAS: ADENOCARCINOMA, Dose [Carcinogen]: 500 MG/KG 1/WK FOR 5 WK", "value": "8/17 (47%), 7/19 (37%), 21%, not significant"}]}
